Literature values, collected in US20110160253A1, “DEUTERATED TIZANIDINE” (priority 2008, published 2011).

Columns and labels:
[1] = patients treated with tizanidine; appears to be dose related
[2] = primary cytochrome P450 isoenzyme involved being CYP1A2

In the case of Clc1ccc2nsnc2c1NC1=NCCN1 [Tizanidine, 5-chloro-4-(2-imidazolin-2-ylamino)-2,1,3-benzothiodiazole], the “patients who report sedation” value [1] is listed as 48% and the “administered dose that is metabolized” value [2] is listed as “Approximately 95%”.
